Experimental data from ChEMBL document CHEMBL3785076, “Disposition of valproic acid in man” (Eur J Clin Pharmacol, 1977).

Tests used:
[1] = Plasma concentration in healthy human subjects (6 subjects) at 600 mg, po administered as single enteric-coated compound dose measured after 2 hrs by GLC method; format: ADME, organism-based
[2] = Plasma concentration in healthy human subjects (6 subjects) at 600 mg, po administered as single enteric-coated compound dose measured after 3 hrs by GLC method; format: ADME, organism-based
[3] = Plasma concentration in healthy human subjects (6 subjects) at 600 mg, po administered as single enteric-coated compound dose measured after 4 hrs by GLC method; format: ADME, organism-based
[4] = Plasma concentration in healthy human subjects (6 subjects) at 600 mg, po administered as single enteric-coated compound dose measured after 6 hrs by GLC method; format: ADME, organism-based
[5] = Plasma concentration in healthy human subjects (6 subjects) at 600 mg, po administered as single enteric-coated compound dose measured after 10 hrs by GLC method; format: ADME, organism-based
[6] = Plasma concentration in healthy human subjects (6 subjects) at 600 mg, po administered as single enteric-coated compound dose measured after 24 hrs by GLC method; format: ADME, organism-based
[7] = Plasma concentration in healthy human subjects (6 subjects) at 600 mg, po administered as single enteric-coated compound dose measured after 30 hrs by GLC method; format: ADME, organism-based
[8] = Plasma concentration in healthy human subjects (6 subjects) at 600 mg, po administered as single enteric-coated compound dose measured after 48 hrs by GLC method; format: ADME, organism-based
[9] = Plasma concentration in healthy human subjects (6 subjects) at 600 mg, po administered as single enteric-coated compound dose measured after 72 hrs by GLC method; format: ADME, organism-based
Homo sapiens [10] = assay: Drug lag time in healthy human subjects (6 subjects) at 600 mg, po administered as single enteric-coated compound dose measured by GLC method; format: ADME, organism-based; settings: in vivo
[11] = Tmax in healthy human subjects (6 subjects) at 600 mg, po administered as single enteric-coated compound dose measured by GLC method; format: ADME, organism-based; settings: in vivo
[12] = Elimination rate constant during beta-phase in healthy human subjects (6 subjects) at 600 mg, po administered as single enteric-coated compound dose measured by GLC method; format: ADME, organism-based; settings: in vivo
[13] = Terminal half life in healthy human subjects (6 subjects) at 600 mg, po administered as single enteric-coated compound dose measured by GLC method; format: ADME, organism-based; settings: in vivo, read-out: beta t1/2 (converted)
[14] = AUC in healthy human subjects (6 subjects) at 600 mg, po administered as single enteric-coated compound dose measured by GLC method; format: ADME, organism-based; settings: in vivo
Homo sapiens [15] = assay: Apparent volume of distribution in healthy human subjects (6 subjects) at 600 mg, po administered as single enteric-coated compound dose measured by GLC method; format: ADME, organism-based; settings: in vivo
[16] = Total plasma clearance in healthy human subjects (6 subjects) at 600 mg, po administered as single enteric-coated compound dose measured by GLC method; format: ADME, organism-based
Homo sapiens [17] = assay: Mean steady state plasma concentration in healthy human subjects (6 subjects) at 1200 mg, po for 12 days administered as enteric-coated compound dose by GLC method; format: ADME, organism-based; settings: in vivo, 288 h
[18] = Steady state plasma concentration before morning dose in healthy human subjects (6 subjects) at 1200 mg, po for 12 days administered as enteric-coated compound dose by GLC method; format: ADME, organism-based; settings: read-out: Cpss
[19] = Half life at steady state in healthy human subjects (6 subjects) at 1200 mg, po for 12 days administered as enteric-coated compound dose by GLC method; format: ADME, organism-based; settings: in vivo, read-out: t1/2ss (converted)
[20] = Plasma protein binding in healthy human subjects (6 subjects) measured under steady state conditions by equilibrium dialysis method; format: ADME, cell-free; settings: read-out: PPB (converted)
[21] = Plasma protein binding in healthy human subjects (6 subjects) assessed as unbound fraction level measured under steady state conditions by equilibrium dialysis method; format: ADME, cell-free
[22] = Drug concentration in saliva of healthy human subjects (6 subjects) at 600 mg, po administered as single enteric-coated compound; format: ADME, organism-based; settings: in vivo
[23] = Drug concentration in saliva of healthy human subjects (6 subjects) at 1200 mg, po for 12 days administered as enteric-coated compound dose measured under steady state conditions by GLC method relative to plasma drug level; format: ADME, organism-based; settings: in vivo, 288 h
[24] = Ratio of urinary excretion of valproic acid to urinary excretion of VPA-conjugates in healthy human subjects (6 subjects) at 600 mg, po administered as single enteric-coated compound; format: ADME, organism-based, Urine; settings: in vivo
[25] = Ratio of urinary excretion of valproic acid to urinary excretion of VPA-conjugates in healthy human subjects (6 subjects) at 1200 mg, po for 12 days administered as enteric-coated compound dose measured during 24 hrs relative to total drug excretion; format: ADME, organism-based, Urine; settings: in vivo
[26] = Half life in human measured over 24 hrs; format: ADME, organism-based; settings: in vivo

SMILES: CCCC(CCC)C(=O)[O-].[Na+] [VALPROATE SODIUM]
- concentration at 2 h [1]: 10300 ng/mL
- concentration at 3 h [2]: 42800 ng/mL
- concentration at 4 h [3]: 58100 ng/mL
- concentration at 6 h [4]: 53200 ng/mL
- concentration at 10 h [5]: 38400 ng/mL
- concentration at 24 h [6]: 17600 ng/mL
- concentration at 30 h [7]: 14000 ng/mL
- concentration at 48 h [8]: 6500 ng/mL
- concentration at 72 h [9]: 2500 ng/mL
- Tlag (Homo sapiens [10]): 1.3 h
- Tmax [11]: 3.7 h
- k el [12]: 1.25e-05 s⁻¹
- half-life [13]: 15.9 h
- AUC [14]: 1210 µg·h/mL
- Vbeta (Homo sapiens [15]): 0.15 L/kg
- CL/F [16]: 0.107 mL/min/kg
- Cpss (Homo sapiens [17]): 81.3 µg/mL
- concentration at 288 h [18]: 75300 ng/mL
- half-life [19]: 17.3 h
- fraction unbound [20]: 0.067
- fraction unbound [21]: 0.067
- Drug uptake [22]: < 0.5 µg/mL
- Drug uptake [23]: 1.3%
- Ratio [24]: 0.158
- Ratio [25]: 1.127
- half-life [26]: 8 h
